In patent publication US4482566A, “Substituted aminoalkylbenzene type lower acylamides” (Teikoku Hormone Mfg. Co., Ltd., priority 1979, dated 1984):

What was measured:
[1] = molecular target: T1, histamine H2 receptor (Cavia porcellus, UniProt P47747); test: Blocking action on histamine H2 receptor in vitro (positive chronotropic effect of histamine in spontaneously beating atria); settings: negative logarithm of concentration required to shift dose-response of histamine to the right by 2-fold; guinea pig atria; read-out: pA2 (converted)
T1 construct: spontaneously beating atria of guinea pig in vitro; from tissue; host or cells: spontaneously beating guinea pig atria
T1 sequence (P47747 whole entry): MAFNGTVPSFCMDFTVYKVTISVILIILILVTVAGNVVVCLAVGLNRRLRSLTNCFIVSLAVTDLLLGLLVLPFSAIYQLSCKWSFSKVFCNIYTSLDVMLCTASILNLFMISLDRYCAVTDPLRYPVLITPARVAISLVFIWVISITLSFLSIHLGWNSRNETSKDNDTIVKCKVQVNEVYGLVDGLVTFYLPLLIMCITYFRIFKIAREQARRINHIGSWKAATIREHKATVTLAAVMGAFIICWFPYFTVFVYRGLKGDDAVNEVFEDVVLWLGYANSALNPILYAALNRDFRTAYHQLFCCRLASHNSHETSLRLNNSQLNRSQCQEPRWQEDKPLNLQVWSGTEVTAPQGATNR
Experimental: Histamine H2 receptor blocking activity of the compound was determined by obtaining the dose-response relationship of the positive chronotropic effect of histamine in spontaneously beating atria of guinea pig in vitro, in the absence and in the presence of a test compound. […] E. J. Ariens. Molecular Pharmacology, vol. 1, 153-156 (1964), Academic Press, New York).

[2] = system: gastric acid secretion induced by histamine; test: Inhibitory action against the gastric acid secretion induced by histamine (perfused stomach, anesthetized rats); format: in vivo; settings: Rattus norvegicus, 1 h; male Donryu rats, urethane anesthesia; compound injected before histamine dihydrochloride 5 mg/kg i.v.; acid output during 60 min; read-out: ED50, dose to inhibit 50% of acid output of the control
Experimental: Inhibitory action of a test compound against the gastric acid secretion induced by histamine was determined according to the method of Ghosh and Schild (M. N. Ghosh and H. O. Schild: Br. J. Pharmacol. 13, 54, 1958) with some modifications. Male Donryu rats weighing 200±10 g were deprived of food for 24 hr prior to the experiments, with water ad lib. Under the anesthesia with 1.2 g/kg of subcutaneous urethane, trachea and cervical vein were cannulated. With midline opening, the duodenum immediately below the junction with pylorus was incised and after the stomach was flashed with saline for several times, the polyethylene tube was inserted into the pylorus through the incision, and ligated with surrounding tissues keeping the blood vessels intact. The polyvinyl tube was inserted into the mouth up to the forestomach through the esophagus and ligated at the cervical level. Saline solution kept at 35° C. was perfused through the polyvinyl tube at the rate of 1 ml/min, and the perfusate was collected through the polyethylene tube of the pylorus. The perfusate was collected for 30 min and was titrated by 0.01N NaOH with phenolphthalein as an indicator to obtain a total acid output(mEq). Subsequently, the perfusate was collected for every 30 min. After the acid output became constant, the stomach was perfused for further 60 min. After that, in the control group, 0.1 ml of saline per 100 g of body weight was intravenously injected, 10 min later 5 mg/kg of histamine dihydrochloride was injected intravenously. The perfusate for 60 min after histamine injection was collected and determined the acidity. The amount of acid output during 60 min after histamine injection subtracted that for 60 min before histamine was regarded as the acid output response to histamine. In the test groups, following the injection of three compounds (A), (B) and (C) instead of saline, 5 mg/kg of histamine dihydrochloride was injected and acid output was determined. Decreased ratio of the acid output to the control was calculated as the response to the test compound. […]

[3] = Acute toxicity; settings: mouse, in vivo, po, SLC-ddY male mice of aging 4 weeks
Experimental: To test the acute toxicity of each compound (A), (B) and (C), LD50 was determined using SLC-ddY male mice of aging 4 weeks.

SMILES	Kb [1]	ED50 [2]	LD50 [3]
O=C(NCCCOc1cccc(CN2CCCC2)c1)c1ccccc1 [Example 2]	191 nM	–	–
O=C(NCCCOc1cccc(CN2CCCC2)c1)c1cccnc1 [Example 1]	129 nM	–	–
COC(=O)c1ccc(C(=O)NCCCOc2cccc(CN3CCCC3)c2)cc1 [Example 5]	81.3 nM	–	–
O=C(NCCCOc1cccc(CN2CCCC2)c1)c1cc(-c2ccccc2)on1 [Example 8]	186 nM	–	–
O=C(NCCCOc1cccc(CN2CCCC2)c1)c1cccnc1 [A]	–	1.25 mg/kg	> 1000 mg/kg
O=CNCCCOc1cccc(CN2CCCC2)c1 [Example 6]	170 nM	–	–
O=C(NCCCOc1cccc(CN2CCCC2)c1)c1ccc([N+](=O)[O-])cc1 [Example 7]	100 nM	–	–
O=C(NCCCOc1cccc(CN2CCCC2)c1)c1cccs1 [Example 3]	138 nM	–	–
CC(=O)NCCCOc1cccc(CN2CCCC2)c1 [compound 4, 3-(3-acetamidopropoxy)-1-(1-pyrrolidinylmethyl)benzene]	–	1.65 mg/kg	> 1000 mg/kg
O=CNCCCOc1cccc(CN2CCCC2)c1 [compound 6]	–	0.84 mg/kg	> 1000 mg/kg
CC(=O)NCCCOc1cccc(CN2CCCC2)c1 [Example 4]	195 nM	–	–
